Values after ≈ are worked out from the molar mass of the structure shown. “Also recorded” adds a separate entry of the source. Like-named read-outs stand apart in the source and are kept apart here.
How the values were obtained:
[1] = Solubility in water of dye quenchers; settings: for solubility: water, Solubility in Water
GCGR = biological target: T1, GCGR (Homo sapiens, UniProt P47871); assay: CNG channel voltage dye assay with quencher dyes, cell line ASC0089 (GCGR); assay type: cell-based; settings: for Cell response to glucagon in the presence of the quencher dye: ASC0089, HLB30602 5 μM, 1 h at room temperature, FIG. 19; for Effect of quencher on glucagon potency: compared with other quenchers and MDC dye kit, FIG. 21, 22
T1 construct: expressed in transfected cells

A2B = biological target: T2, A2B (Homo sapiens, UniProt P29275); assay: CNG channel voltage dye assay with quencher dyes, cell line ASC0097 (A2B); assay type: cell-based; settings: FIG. 20
T2 construct: endogenous in cells
T2 sequence (P29275 1-332): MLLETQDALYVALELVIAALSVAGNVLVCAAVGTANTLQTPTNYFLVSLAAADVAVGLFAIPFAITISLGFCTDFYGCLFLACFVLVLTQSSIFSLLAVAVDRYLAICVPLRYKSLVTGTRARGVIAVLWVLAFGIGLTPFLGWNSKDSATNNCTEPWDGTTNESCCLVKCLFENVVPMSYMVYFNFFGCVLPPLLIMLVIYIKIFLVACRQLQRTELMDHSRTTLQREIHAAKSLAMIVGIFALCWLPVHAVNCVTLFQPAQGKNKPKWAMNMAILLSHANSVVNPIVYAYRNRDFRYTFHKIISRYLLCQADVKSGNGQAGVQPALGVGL

cell membranes = assay: Effect of EGTA in extracellular assay solution on baseline voltage dye fluorescence; assay type: cell-based; settings: CNG channel without pore mutation
20 ligand-receptor pairs = settings: quenchers for fluorescent voltage dyes
DP = biological target: T3, DP (Homo sapiens, UniProt Q13258); assay: CNG channel voltage dye assay with quencher dyes, cell line ASC0093 (DP); assay type: cell-based
T3 construct: expressed in transfected cells; host or cells: cell line ASC0093 (CNG sensor line)
T3 sequence (Q13258 1-359): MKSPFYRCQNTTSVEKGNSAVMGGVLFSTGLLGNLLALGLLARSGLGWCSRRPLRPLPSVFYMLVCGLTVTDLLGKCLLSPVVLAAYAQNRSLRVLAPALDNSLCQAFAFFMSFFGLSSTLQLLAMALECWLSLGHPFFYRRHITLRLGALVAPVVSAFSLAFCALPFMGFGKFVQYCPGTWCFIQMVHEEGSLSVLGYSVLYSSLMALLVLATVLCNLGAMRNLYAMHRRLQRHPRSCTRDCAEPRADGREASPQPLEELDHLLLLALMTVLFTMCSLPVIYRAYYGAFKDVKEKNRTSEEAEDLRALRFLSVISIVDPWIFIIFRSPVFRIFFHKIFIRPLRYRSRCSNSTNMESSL

[2] = CNG channel voltage dye assay with quencher dyes, cell line ASC0097 (EP2); settings: NY & H30602
[3] = CNG channel voltage dye assay with quencher dyes, cell line ASC0089 (Cyclase)
[4] = tested on: stably transformed cells expressing a CNG channel gene; assay: CNG channel endpoint assay, 384 well, FLEXstation; assay type: cell-based; settings: 30 μM, 90 minutes after stimulation
Experimental: The CNG channel assay can also be used to perform endpoint assays. Decay of fluorescence responses results from desensitization of CNG channel was effectively removed by chelating extracellular calcium by EGTA and supplementing inhibitors of phosphodiesterase. Stably transformed cells expressing a CNG channel gene were seeded into 384 well plates and grown as described in previous examples. Forskolin was dissolved at a final concentration of 30 μM in Compound Buffer containing EGTA. Fluorescence intensity values of cells incubated with forskolin or with Compound Buffer only were read using FLEXstation (Molecular Devices) at different time points after forskolin stimulation.

tyramine receptor = assay: Tyramine receptor activation, CNG channel assay with membrane potential dye; assay type: cell-based; settings: HEK293 transient, FIG. 16
Experimental: In this example, activation of the tyramine receptor was examined using the CNG channel assay and compared with calcium fluorescence assays using Gα16 and Gαqs. Similar amounts of plasmids comprising CNG channel, Gα16 or Gαqs were used for transient expression in HEK293 cells also transiently expressing tyramine receptor. Calcium assays were performed following the protocol provided by Molecular Devices. For each concentration of tyramine, three recordings were made to obtain an average response in cells expressing Gα16, Gαqs and CNG channel respectively.

VIP2R = biological target: T4, VIP2R (Homo sapiens, UniProt P41587); assay: CNG channel voltage dye assay with quencher dyes, cell line ASC0145 (VIP2R); assay type: cell-based; settings: ASC0145, compared with MDC dye kit R-8034, FIG. 23
T4 construct: expressed in transfected cells; host or cells: cell line ASC0145 (CNG sensor line)
T4 sequence (P41587 24-438): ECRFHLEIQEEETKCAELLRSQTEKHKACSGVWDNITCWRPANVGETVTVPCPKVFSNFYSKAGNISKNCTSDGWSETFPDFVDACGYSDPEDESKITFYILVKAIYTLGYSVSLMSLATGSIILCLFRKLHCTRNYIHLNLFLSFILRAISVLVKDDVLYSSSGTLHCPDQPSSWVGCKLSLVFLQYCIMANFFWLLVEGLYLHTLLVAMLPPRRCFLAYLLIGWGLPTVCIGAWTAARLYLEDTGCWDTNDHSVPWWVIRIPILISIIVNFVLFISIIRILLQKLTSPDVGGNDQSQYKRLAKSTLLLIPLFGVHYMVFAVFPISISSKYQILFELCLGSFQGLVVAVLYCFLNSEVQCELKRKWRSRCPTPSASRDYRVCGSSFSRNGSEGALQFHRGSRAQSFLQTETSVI

GIPR = biological target: T5, GIPR (Homo sapiens, UniProt P48546); assay: CNG channel voltage dye assay with quencher dyes, cell line ASC0133 (GIPR); assay type: cell-based; settings: ASC0133, compared with MDC dye kit R-8034, FIG. 24
T5 construct: expressed in transfected cells; host or cells: cell line ASC0133 (CNG sensor line)
T5 sequence (P48546 22-466): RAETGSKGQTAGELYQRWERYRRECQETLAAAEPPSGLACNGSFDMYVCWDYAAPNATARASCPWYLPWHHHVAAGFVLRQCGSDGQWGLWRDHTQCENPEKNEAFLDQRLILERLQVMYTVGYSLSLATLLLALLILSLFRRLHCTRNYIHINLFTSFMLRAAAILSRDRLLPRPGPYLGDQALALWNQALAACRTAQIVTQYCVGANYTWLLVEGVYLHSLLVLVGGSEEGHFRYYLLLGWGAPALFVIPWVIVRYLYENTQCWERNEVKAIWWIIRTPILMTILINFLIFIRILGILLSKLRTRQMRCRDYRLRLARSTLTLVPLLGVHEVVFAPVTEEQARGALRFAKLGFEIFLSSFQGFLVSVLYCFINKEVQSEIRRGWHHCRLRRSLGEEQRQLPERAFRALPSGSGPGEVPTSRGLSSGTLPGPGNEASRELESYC

MC1R = MC1R (Homo sapiens, UniProt Q01726); settings: cell line ASC0179
Chain of MC1R (Q01726 whole entry, species assumed): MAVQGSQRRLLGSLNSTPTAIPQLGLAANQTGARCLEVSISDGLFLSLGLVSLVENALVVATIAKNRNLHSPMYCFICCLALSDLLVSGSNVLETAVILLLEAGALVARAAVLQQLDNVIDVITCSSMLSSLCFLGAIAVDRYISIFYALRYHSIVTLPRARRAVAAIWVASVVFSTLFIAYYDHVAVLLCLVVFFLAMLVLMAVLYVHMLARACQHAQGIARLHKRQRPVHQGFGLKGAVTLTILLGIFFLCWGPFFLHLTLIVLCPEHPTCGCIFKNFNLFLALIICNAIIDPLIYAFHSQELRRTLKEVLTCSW

T1 sequence (P47871 26-477, species assumed): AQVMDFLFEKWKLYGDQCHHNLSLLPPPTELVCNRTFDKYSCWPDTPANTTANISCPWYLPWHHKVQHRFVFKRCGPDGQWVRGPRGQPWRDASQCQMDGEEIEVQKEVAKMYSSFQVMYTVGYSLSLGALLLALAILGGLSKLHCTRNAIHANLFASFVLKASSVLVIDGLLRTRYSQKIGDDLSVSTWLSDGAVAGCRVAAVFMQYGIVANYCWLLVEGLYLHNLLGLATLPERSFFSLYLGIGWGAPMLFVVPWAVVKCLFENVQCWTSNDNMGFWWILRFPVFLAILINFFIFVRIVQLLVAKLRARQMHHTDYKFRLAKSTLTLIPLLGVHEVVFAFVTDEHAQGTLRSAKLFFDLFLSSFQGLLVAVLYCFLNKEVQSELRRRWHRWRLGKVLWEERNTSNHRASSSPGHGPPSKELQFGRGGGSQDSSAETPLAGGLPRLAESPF

O=S(=O)([O-])c1cc(O)c2c(/N=N/c3ccc(Nc4ccccc4)c4c(S(=O)(=O)[O-])cccc34)cc(S(=O)(=O)[O-])cc2c1.[Na+].[Na+].[Na+] [Acid Blue 92]
Solubility in Water [1]: 40 mg/mL

O=S(=O)([O-])c1cccc(N=Nc2ccc(N=Nc3ccc(Nc4ccccc4)c4c(S(=O)(=O)[O-])cccc34)c3ccccc23)c1.[Na+].[Na+] [Acid Blue 113]
Solubility in Water [1]: 40 mg/mL

CCN(CC)c1ccc(C(=C2C=CC(=[N+](CC)Cc3cccc(S(=O)(=O)[O-])c3)C=C2)c2ccc(N(CC)Cc3cccc(S(=O)(=O)[O-])c3)cc2)cc1.[Na+] [Acid Violet 17]
Cell response to glucagon in the presence of the quencher dye (GCGR): abolished | Solubility in Water [1]: 30 mg/mL

O.O=C1c2ccccc2C(=O)c2c1cc(S(=O)(=O)[O-])c(O)c2O.[Na+] [Alizarin Red S monohydrate]
Solubility in Water [1]: 20 mg/mL

CC(=O)Nc1ccc(S(=O)(=O)[O-])c2cc(S(=O)(=O)[O-])c(N=Nc3ccc(N=Nc4ccc(S(=O)(=O)[O-])cc4)c4ccc(S(=O)(=O)[O-])cc34)c(O)c12.[Na+].[Na+].[Na+].[Na+] [Brilliant Black BN]
Solubility in Water [1]: 30 mg/mL

O=S1(=O)OC(c2cc(Cl)c(O)c(Br)c2)(c2cc(Cl)c(O)c(Br)c2)c2ccccc21 [Bromochlorophenol Blue]
Solubility in Water [1]: 20 mg/mL (≈ 34.4 mM)

O=S1(=O)OC(c2cc(Br)c(O)c(Br)c2)(c2cc(Br)c(O)c(Br)c2)c2ccccc21 [Bromophenol Blue]
Interference of quencher with response to glucagon stimulation (GCGR; FIG. 21): interfered | Solubility in Water [1]: 30 mg/mL (≈ 44.8 mM) | Suitability of quencher for assay of adenosine receptor A2B responses to NECA (A2B): reduced NECA response without affecting NECA potency

O=c1c(Br)cc2c(-c3ccccc3S(=O)(=O)O)c3cc(Br)c(O)c(O)c3oc-2c1O [Bromopyrogallol Red]
solubility [1]: 5 mg/mL (≈ 8.96 mM)

O=S1(=O)OC(c2ccc(O)c(Cl)c2)(c2ccc(O)c(Cl)c2)c2ccccc21 [Chlorophenol Red]
Solubility in Water [1]: 30 mg/mL (≈ 70.9 mM)

O=C(O)CN(CCOCCOCCN(CC(=O)O)CC(=O)O)CC(=O)O [EGTA]
fluorescence increase over baseline (cell membranes): about 40%

Cc1cc(-c2ccc(/N=N/c3c(S(=O)(=O)O)cc4cc(S(=O)(=O)O)cc(N)c4c3O)c(C)c2)ccc1/N=N/c1c(S(=O)(=O)O)cc2cc(S(=O)(=O)O)cc(N)c2c1O [HLB30702 (Trypan Blue), Trypan Blue]
Interference of quencher with response to glucagon stimulation (GCGR; FIG. 21): interfered | Solubility in Water [1]: >20 mg/mL | Suitability of quencher for assay of adenosine receptor A2B responses to NECA (A2B): suitable

CCN(CC)c1ccc2nc3ccc(N)cc3[n+](-c3ccccc3)c2c1.[Cl-] [Methylene Violet 3Rax]
Solubility in Water [1]: 10 mg/mL

CC1=CC(=C(c2ccc(N)c(C)c2)c2ccc(N)c(C)c2)C=CC1=N.Cl [New Fuchsin]
Solubility in Water [1]: 20 mg/mL

Nc1c(N=Nc2ccc([N+](=O)[O-])cc2)c(S(=O)(=O)[O-])cc2cc(S(=O)(=O)[O-])cc(O)c12.[Na+].[Na+] [Nitro Red]
Solubility in Water [1]: 40 mg/mL | effect of quencher on responses of peptides and other small organic molecules (20 ligand-receptor pairs): little effect

CCCCC[C@H](O)/C=C/[C@H]1C(=O)C[C@H](O)[C@@H]1C/C=C\CCCC(=O)O [PGD2, Prostaglandin D2]
EC50 (DP; MDC dye): 0.018 nM | maximal response Fmax/Fb (DP; MDC dye): 4.4 | EC50 (DP; NY & H30602): 0.0078 nM | maximal response Fmax/Fb (DP; NY & H30602): 4.2

CCCCC[C@H](O)/C=C/[C@H]1[C@H](O)CC(=O)[C@@H]1CCCCCCC(=O)O [PGE1, Prostaglandin E1]
EC50 [2]: 40 nM | maximal response Fmax/Fb [2]: 5.3

O=S(=O)([O-])c1cc(O)c(N=Nc2c(O)ccc3ccccc23)c2ccccc12.[Na+] [Palatine Chrome Black 6BN (Calcon)]
Solubility in Water [1]: 30 mg/mL

Cc1cc(-c2ccc(/N=N/c3c(S(=O)(=O)O)cc4cc(S(=O)(=O)O)cc(N)c4c3O)c(C)c2)ccc1/N=N/c1c(S(=O)(=O)O)cc2cc(S(=O)(=O)O)cc(N)c2c1O [Trypan Blue (Fluka), Trypan Blue]
Effect of quencher on maximal responses to glucagon (GCGR; FIG. 21): did not inhibit maximal responses | Interference of quencher with response to glucagon stimulation (GCGR; FIG. 21): interfered | Effect of quencher on glucagon potency (GCGR; listed as Trypan blue): reduced glucagon potency by about one order | Effect of quencher on glucagon potency (GCGR; listed as trypan blue): significantly reduced glucagon potency | solubility [1]: ~10 mg/mL (≈ 11.5 mM) | Suitability of quencher for assay of adenosine receptor A2B responses to NECA (A2B): suitable

C=C[C@@]1(C)CC(=O)[C@]2(O)[C@@]3(C)[C@@H](O)CCC(C)(C)[C@@H]3[C@H](O)[C@H](OC(C)=O)[C@@]2(C)O1 [forskolin]
EC50 ([3]; MDC dye): 230 nM | maximal response Fmax/Fb ([3]; MDC dye): 5.3 | EC50 ([3]; NY & H30602): 160 nM | maximal response Fmax/Fb ([3]; NY & H30602): 5.1 | increase of fluorescence intensity versus buffer control [4]: 2.8 fold | fluorescence intensity ([4]; n=192): 5.3±0.5×10^5 RFU

NCCc1ccc(O)cc1 [tyramine]
tyramine receptor activation (tyramine receptor): detectable

DIAZINE BLACK
Cell response to glucagon in the presence of the quencher dye (GCGR): abolished

Direct Violet 51
Solubility in Water [1]: 20 mg/mL

Nitrazine Yellow
Effect of quencher on VIP potency (VIP2R): left-shifted by about one order of magnitude; also recorded: increased using nitrazine yellow as a quencher by more than one order | Effect of quencher on glucagon potency (GCGR): Glucagon potency increased | Solubility in Water [1]: 20 mg/mL | Effect of quencher on GIP potency (GIPR): left-shifted by about one order of magnitude; also recorded: increased using nitrazine yellow as a quencher by one order | effect of quencher on responses of peptides and other small organic molecules (20 ligand-receptor pairs): little effect

Sulfonazo II
Solubility in Water [1]: 40 mg/mL

α-MSH
maximal response Fmax/Fb (MC1R; MDC dye): 5 | maximal response Fmax/Fb (MC1R; TB & H30602): 5.1

— patent US7238213B2, “Cell-based assays employing voltage and calcium dyes” (priority 2001, dated 2007)
